Source: patent US20120034226A1, “DIAGNOSTIC METHOD OF SKIN INFLAMMATORY DISEASE” (RIKEN, priority 2009, published 2012)

Experiments:
[1] = system: CD4-positive T cells derived from the mutant mouse; test: Cytokine-dependent cell proliferation activity (WST-8 assay); format: cell-based; details: cytokine/PMA-stimulated, 48 hours culture, Jak inhibitor I 3-100 nM, Jak3 inhibitor I 125-500 μM
Description: Cytokine-dependent cell proliferation activity was measured as described below. Single cells of the thymus in suspension were cultured at a density of 5×10^5 cells/well, and stimulated with PMA (10 ng/ml) [IL-2 (25 ng/ml), IL-4 (25 ng/ml), IL-6 (100 ng/ml), IL-7 (25 ng/ml), IL-12 (1-100 ng/ml) or IFN-γ (100 ng/ml) (Peprotech and R&D) was added]. Used in some experiments was the pan-Jak inhibitor Jak inhibitor I (3-100 nM, pyridone 6; Calbiochem) or Jak3 inhibitor I (125-500 μM, WHI-P131; Calbiochem). The cells were cultured for 48 hours, and their proliferation was measured by an assay using WST-8 (Nacalai Tesque) and soluble tetrazolium/formazan.

[2] = system: ear skins of mutant mice; test: Topical application of Jak inhibitor to ear skin of mutant mice, development of dermatitis; format: in vivo, mouse
Description: (§1) A mouse model of atopic dermatitis was generated according to a detailed protocol reported [Masuya et al., Hum Mol Genet. 16, 2366-2375 (2007); http://www.brc.riken.jp/lab/gsc/mouse/]. C57BL/6J mice and C3H/HeJ mice were purchased from CLEA Japan. C57BL/6-kit^W-sh/W-sh mice were obtained from the RIKEN BioResource Center. C57BL/6-RAG1^−/− mice were allowed to propagate spontaneously. Severity scores were determined using an improved version of a reported scale [Matsuda et al., Int Immunol. 9, 461-466 (1997)]. The mice were reared in an SPF (specific pathogen-free) environment and subjected to experiments in compliance with the guidelines with the approval of RIKEN's Animal Experiment Committee.
(§2) Jak inhibitor I (150 μM, pyridone 6; Calbiochem) in suspension in acetone/olive oil (4:1), 10 μl, was topically applied to the ventral and dorsal parts of the ear skin of each mutant mouse three times a week, starting at 4 weeks after birth.
The above-described Example has shown that dermatitis in the mutant mice is caused by excess activation of Jak1 and resulting defect of the skin barrier. To verify this hypothesis, a Jak inhibitor was coated on the ear skins of mutant mice at 4 weeks after birth and their litter mates. To allow the inhibitor to deeply penetrate the epidermal layer, a combination of acetone and olive oil was used as the solvent for the inhibitor. In fact, this solvent itself was harmful to the formation of the epidermal barrier; the development of dermatitis in the mutant mice was promoted by administering this solvent.

[3] = system: pY-Jak1 and Ki67 in the ear skins of the mutant mice; test: Histoimmunological staining of differentiation marker molecules in ear skin after Jak inhibitor; format: in vivo, mouse; details: mutant mice treated with Jak inhibitor for 2 weeks from Week 4 of age
Description: as §2
For analysis by immunofluorescence, frozen ear tissue specimens were fixed and stained using an antibody against pY-Jak1 (Cell Signaling), an antibody against Ki67 (Abcam), and an antibody against K6, K14 or K10 (Covance). Next, samples were incubated with an FITC- or Cy3-conjugated goat anti-rabbit IgG secondary antibody (Zymed). The slides were further counter-stained with hematoxylin or DAPI (Vector Laboratories).
Since some differentiation marker molecules were abnormally expressed in the epidermal layer, how the expression of those differentiation marker molecules changed with inhibition of Jak1 activity with a Jak inhibitor in mutant mice was examined by histoimmunological staining (FIG. 5c). By inhibiting Jak1 activity, the expression of pY-Jak1 and the expression of Ki67 in the ear skins of the mutant mice could be reduced. In contrast, in the mice receiving the solvent alone, Jak1 and Ki67 were activated in excess. […] In the ear skins of mice treated with acetone-olive oil alone, all markers were expressed at higher levels than in the skins of non-treated mice.

[4] = system: ear skins of mutant mice; test: Petrolatum coating of ear skin of mutant mice, development of dermatitis; format: in vivo, mouse; details: Jak inhibitor added to petrolatum
Description: as §1
To determine whether the destruction of the skin permeability barrier causes the development of dermatitis in the mutant mice, their ear skins were coated with petrolatum alone three times a week for 4 to 16 weeks.

[5] = system: Jak1; details: Kumamoto T. et al., Cancer Lett. 2009; cited from earlier work
[6] = system: EGF receptor (EGFR); details: Kumamoto T. et al., Cancer Lett. 2009; cited from earlier work

Compound: COc1cc2ncnc(Nc3ccc(O)cc3)c2cc1OC [WHI-P131]
- inhibition of accentuated (excess) proliferation of lymphocytes [1]: not
- inhibition of accentuated (excess) proliferation of lymphocytes ([1]; listed as Jak 3 inhibitor I): lack of proliferation inhibition

Compound: CC(C)(C)c1nc2c3cc[nH]c(=O)c3c3cc(F)ccc3c2[nH]1 [pyridone 6]
- inhibition of accentuated (excess) proliferation of lymphocytes [1]: dose-dependently inhibited
- inhibition of accentuated (excess) proliferation of lymphocytes ([1]; listed as Jak inhibitor I): inhibited dose-dependently
- delay of development of dermatitis compared with solvent alone ([2]; 150 μM in acetone/olive oil, 10 μl topically on ear skin three times a week from 4 weeks after birth): 1 week
- clinical symptoms compared with solvent alone ([2]; 150 μM in acetone/olive oil, topical on ear skin three times a week from 4 weeks after birth): less severe clinical symptoms
- development of dermatitis (in words) ([2]; Jak inhibitor applied to the skin, FIG. 5): suppressed
- progression of the illness after development of dermatitis ([2]; coating with the Jak inhibitor on ear skin): suppressed the progression of the illness
- expression of Ki67 in ear skin [3]: reduced
- expression of pY-Jak1 in ear skin [3]: reduced
- additive effect on suppression of development of the illness [4]: no additive effect

Compound: O=c1c(O)c(-c2cc(O)c(O)c(O)c2)oc2cc(O)cc(O)c12 [myricetin, 3,3′,4′,5,5′,7-hexahydroxyflavone]
- phosphorylation of Jak1 [5]: inhibit
- self-phosphorylation of EGF receptor (EGFR) [6]: increase
